pIC50: −log10 of the molar value.
Experiments:
[1] = target: Chymotrypsinogen A (Bos taurus) (UniProt P00766); test: Tested for inhibition of Chymotrypsinogen from bovine
[2] = target: Chymotrypsinogen A (Bos taurus) (UniProt P00766); test: as above; remark: listed apart in the source

pIC50 [1] | pIC50 [2] | Compound
< 4.00 |  | CC(C)CC(=O)N[C@H](C(=O)N[C@H](C(=O)N[C@@H](CC(C)C)[C@@H](O)CC(=O)N[C@@H](C)C(=O)N[C@@H](CC(C)C)[C@@H](O)CC(=O)O)C(C)C)C(C)C [PEPSTATIN]
 | < 4.00 | CC(C)OC(=O)[C@H](O)[C@H](CC1CCCCC1)NC(=O)[C@H](Cc1c[nH]cn1)NC(=O)[C@@H](CC(=O)N1CCOCC1)Cc1cccc2ccccc12 [4-Cyclohexyl-2-hydroxy-3-[3-(1H-imidazol-4-yl)-2-(4-morpholin-4-yl-2-naphthalen-1-ylmethyl-4-oxo-butyrylamino)-propionylamino]-butyric acid isopropyl ester]
